Data published in patent EP2321300B1, “CHLOROPHYLL CATABOLITES” (Universität Innsbruck, priority 2008, dated 2010).

Test system: Autoxidation von Linolensäure
Experiment: Antioxidant test: inhibition of hydroperoxide formation in radical-chain autoxidation of linoleic acid (after Stocker et al.), AIBN as radical starter, UV/Vis at 234 nm or HPLC
Type: biochemical
Conditions: for IC50: Autoxidation of Linolensäure in the presence of air, b23 room temperature (37°C, 0,15 M Linolsäure, 2 mM AIBN, 6 % (v/v) Methanol), read-out: Konzentration c0,5 (Rate der Peroxidbildung auf die Hälfte reduziert)
Source text: Stocker et al. verwendeten zur Quantifizierung der antioxidativen Wirkung des Hämabbauproduktes Bilirubin ein einfaches Testsystem. Die essentielle Fettsäure Linolsäure, eine zweifach ungesättigte Fettsäure, ist sehr empfindlich gegenüber einer Oxidation durch freie Radikale. Derartige Oxidationen können in Form von Kettenreaktionen z.B. in Zellmembranen großflächige Schäden herbeiführen. In vitro wurde dieser "oxidative Stress" durch den Einsatz einer Azoverbindung (Radikalstarter) simuliert. Derartige Azoverbindungen bilden ständig, abhängig von der Temperatur durch Abspaltung von Stickstoff (N2) Kohlenstoffradikale, die wiederum mit den ungesättigten Bindungen der Fettsäuren reagieren können. Es bilden sich Fettsäureradikale die ihrerseits wiederum mit Sauerstoff reagieren. Das führt zur Bildung von Fettsäurehydroperoxiden, die wegen ihrer besonderen Absorptionseigenschaften in UV-Bereich (234 nm) spektroskopisch nachweisbar sind. Abhängig von der Konzentration des Radikalbildners steigt also mit der Zeit die Anzahl der Fettsäurehydroperoxidmoleküle an. Setzt man einen antioxidativ wirksamen Stoff zu, können Radikale abgefangen werden, und die Bildung der Hydroperoxide wird verlangsamt.
Das Ergebnis dieser Untersuchungen zeigt die Figur 8, in der die zeitliche Abhängigkeit der Zunahme oxidierter Linolsäure bei unterschiedlichen Konzentrationen der Antioxidantien Bilirubin bzw. NCC-1 aufgetragen ist.
Die Aktivität des natürlichen und weniger polaren Cj-YCC-2 als Antioxidans wurde in Lösung mittels Standardexperimenten, die unter anderem auch in der WO 2007/030848 beschrieben sind, getestet unter Verwendung der Autoxidation von Linolensäure in der Anwesenheit von Luft und bei Raumtemperatur. Das gelbe Tetrapyrrol Cj-YCC-2 inhibierte die Erscheinung von Hydroperoxiden aus einer Radikal-Ketten-Autoxidation von Linolensäure in der Anwesenheit von Luft (siehe Fig. 8). […]

SMILES	IC50	Erscheinung von Hydroperoxiden aus einer Radikal-Ketten-Autoxidation von Linolensäure (in the presence of air, Fig. 8)
C=CC1=C(C)/C(=C\c2[nH]c([C@@H]3c4[nH]c(Cc5[nH]c(C=O)c(C)c5CCO)c(C)c4C(=O)[C@H]3C(=O)OC)c(CCC(=O)O)c2C)NC1=O [Cj-YCC-1, (13^2S,15R,20E) - 3',3^2-Didehydro - 4,5,10,15 - (22,24H) - hexahydro - 13^2 - methoxycarbonyl - 4,5 - seco - 4,5 - dioxo - phytoporphyrinat]	~10 µM	–
C=CC1=C(C)C(Cc2[nH]c(C3c4[nH]c(Cc5[nH]c(C=O)c(C)c5CCO)c(C)c4C(=O)C3C(=O)OC)c(CCC(=O)O)c2C)NC1=O (stereo not drawn) [Cj-NCC-1, reference compound]	~100 µM	–
C=CC1=C(C)/C(=C/c2[nH]c([C@@H]3c4[nH]c(Cc5[nH]c(C=O)c(C)c5CCO)c(C)c4C(=O)[C@H]3C(=O)OC)c(CCC(=O)O)c2C)NC1=O [Cj-YCC-2, (13^2S,15R,20Z) - 3^1,3^2-Didehydro - 4,5,10,15 - (22,24H) - hexahydro - 13^2 - methoxycarbonyl - 4,5 - seco - 4,5 - dioxo - phytoporphyrinat]	–	inhibierte
